pEC50, pKd: −log10 of the molar value.
Assays:
mT2R5 = molecular target: T1, mT2R5 (Mus musculus, UniProt Q9JKT4); assay: FURA-2 [Ca2+]i imaging in HEK-293 cells expressing Gα15 and rho-mT2R5 (taster, DBA/2 allele); type: cell-based; conditions: for [Ca2+]i response (FURA-2): 1.5 μM cycloheximide
T1 construct: expressed in transfected cells; host or cells: modified HEK-293 cells (PEAKrapid) expressing Gα15; pEAK10 vector
T1 sequence (Q9JKT4 1-300): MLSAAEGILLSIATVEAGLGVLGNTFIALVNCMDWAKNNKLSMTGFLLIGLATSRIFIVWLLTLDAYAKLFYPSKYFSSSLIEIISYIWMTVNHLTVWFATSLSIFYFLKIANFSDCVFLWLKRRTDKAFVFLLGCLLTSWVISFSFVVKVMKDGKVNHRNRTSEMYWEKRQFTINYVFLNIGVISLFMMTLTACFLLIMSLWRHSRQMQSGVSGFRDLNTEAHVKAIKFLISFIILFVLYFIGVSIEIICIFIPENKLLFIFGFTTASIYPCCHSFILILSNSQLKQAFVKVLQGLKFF
From the text: In this system, receptor activation leads to increases in intracellular calcium [Ca2+]i, which can be monitored at the single cell level using the FURA-2 calcium-indicator dye (Tsien et al., Cell Calcium 6:145-157 (1985)). To test and optimize Gα15 coupling, two different GPCRs, a Gαi-coupled μ-opioid receptor (Reisine, Neuropharm. 34:463-472 (1995)) and a Gαq-coupled mGluR1 receptor (Masu et al., Nature 349:760-765 (1991)), were used. Transfection of these receptors into HEK-293 cell produced robust, agonist-selective, and Gα15-dependent Ca^2+ responses (FIG. 1).
A number of studies have shown that many GPCRs, in particular sensory receptors, require specific “chaperones” for maturation and targeting through the secretory pathway (Baker et al., Embo J 13:4886-4895 (1994); Dwyer et al., Cell 93:455-466 (1998)). Recently, Krautwurst et al. (Cell 95:917-926 (1998)) generated chimeric receptors consisting of the first 20 amino acids of rhodopsin and various rodent olfactory receptors. These were targeted to the plasma membrane and functioned as odorant receptors in HEK-293 cells. To determine whether rhodopsin sequences can also help target T2Rs to the plasma membra, rhodopsin-T2R chimeras (rho-T2Rs) were constructed. […] Similar results were obtained with 11 human and 16 rodent T2Rs (see below). To further enhance the level of T2R expression, rho-T2Rs were placed under the control of a strong EF-1α promoter, and introduced as episomal plasmids into modified HEK-293 cells expressing Gα15 (pEAKrapid cells).
A bridge overlap PCR extension technique was used to generate rho-T2R chimeras, which contain the first 39 amino acids of bovine rhodopsin in frame with human and rodent T2R coding sequences (Mehta and Singh, Biotechniques 26:1082-1086 (1999). All receptors were cloned into a pEAK10 mammalian expression vector (Edge Biosystems, MD). Modified HEK-293 cells (PEAK^rapid cells; Edge BioSystems, MD) were grown and maintained at 37° C. in UltraCulture medium (Bio Whittaker) supplemented with 5% fetal bovine serum, 100 μg/ml Gentamycin sulphate (Fisher), 1 μg/ml Amphotericin B and 2 mM GlutaMax I (Lifetechnologies). For transfection, cells were seeded onto matrigel coated 24-well culture plates or 35 mm recording chambers. After 24 h at 37° C., cells were washed in OptiMEM medium (Lifetechnologies) and transfected using LipofectAMINE reagent (Lifetechnologies). Transfection efficiencies were estimated by co-transfection of a GFP reporter plasmid, and were typically >70%. Immunofluoresence staining, and activity assays were performed 36-48 h after transfection.
Transfected cells were washed once in Hank's balanced salt solution with 1 mM sodium pyruvate and 10 mM HEPES, pH 7.4 (assay buffer), and loaded with 2 μM FURA-2 AM (Molecular Probes) for 1 h at room temperature. The loading solution was removed and cells were incubated in 200 μl of assay buffer for 1 h to allow the cleavage of the AM ester. For most experiments, 24-well tissue culture plates containing cells expressing a single rho-T2R were stimulated with 200 μl of a 2× tastant solution (see next section). [Ca^2+]i changes were monitored using a Nikon Diaphot 200 microscope equipped with a 10×/0.5 fluor objective with the TILL imaging system (T.I.L.L Photonics GmbH). Acquisition and analysis of the fluorescence images used TILL-Vision software. Generally, [Ca^2+]i was measured for 80-120 s by sequentially illuminating cells for 200 ms at 340 nm and 380 nm and monitoring the fluorescence emission at 510 nm using a cooled CCD camera. The F340/F380 ratio was analyzed to measure [Ca^2+]i.
Kinetics of activation and deactivation were measured using a bath perfusion system. Cells were seeded onto a 150 μl microperfusion chamber, and test solutions were pressure-ejected with a picospritzer apparatus (General Valve, Inc.). Flow-rate was adjusted to ensure complete exchange of the bath solution within 4-5 s. […]

[1] = molecular target: T2, mT2R5 coupling to gustducin (Mus musculus, UniProt Q9JKT4); assay: Tastant-induced GTPγS binding to gustducin with insect cell membranes containing rho-mT2R5; type: biochemical
T2 construct: infectious Bacmid containing rhodopsin tagged mT2R5 (DBA/2-allele) was produced using the Bac-to-Bac system; rhodopsin tag (rho); made in house; host or cells: insect larval cells infected with recombinant Bacmid (Bac-to-Bac baculovirus system); membrane preparation
T2 sequence (Q9JKT4 1-300): T1 sequence (Q9JKT4 1-300)
Method: To investigate the selectivity of T2R-G-protein coupling, mT2R5 was chosen for study because its activation by cycloheximide recapitulates mouse taste responses. Rho-tagged mT2R5 and gustducin were prepared using a baculovirus expression system. mT2R5-containing membranes were incubated with various purified G-proteins, including gustducin, and measured tastant-induced GTP-γS binding (Hoon et al., Biochem J 309:629-636 (1995)). Specifically, infectious Bacmid containing rhodopsin tagged mT2R5 (DBA/2-allele) was produced using the Bac-to-Bac system (Lifetechnologies, MD). Insect larval cells were infected for 60 h with recombinant Bacmid and membranes were prepared as described previously (Ryba and Tirindelli, J Biol Chem, 270:6757-6767 (1995)). Peripheral proteins were removed by treatment with 8 M urea and membranes were resuspended in 10 mM HEPES pH7.5, 1 mM EDTA and 1 mM DTT. The expression of rho-mT2R5 was assessed by Western blot using mAb B6-30 and quantitated by comparison with known amounts of rhodopsin. Approximately 300 pmol of rho-mT2R5 could be obtained from 2×10^8 infected cells. Gustducin and Gβ1γ8 heterodimers were isolated as described previously (Hoon et al., Biochem J 309:629-636 (1995); Ryba and Tirindelli, J Biol Chem, 270:6757-6767 (1995)). Receptor-catalyzed exchange of GDP for GTPγS on gustducin and other G-protein α-subunits was measured in the presence of 10 nM rho-mT2R5, 100 μM GDP, and 20 μM Gβ1γ8. All measurements were made at 15-minute time points, and reflect the initial rate of GTPγS binding.

Structure (SMILES)	pEC50 (mT2R5)	response of cells expressing mT2R5 (mT2R5)	response to successive applications (mT2R5)	threshold of response (mT2R5) [µM]	[Ca2+]i response (FURA-2) (mT2R5; absence of Gα15)	[Ca2+]i response (FURA-2) (mT2R5; with Gα15)	specificity of [Ca2+]i response (mT2R5; 5 μM)	[Ca2+]i changes in cells lacking receptor or Gα15 (mT2R5; 5000-fold higher concentration)	cells responding (mT2R5; entire camera field) [%]	response to prolonged exposure (mT2R5; exposure >10 s)	response under superfusion (mT2R5; micromolar concentrations)	latency of response (mT2R5; microperfusion chamber) [s]	receptor activation by tastant pulses (mT2R5; multiple pulses of 2 μM)	pKd [1]	coupling of mT2R5 to gustducin [1]	gustducin activation ([1]; 300 μM)	[Ca2+]i response to tastant (mT2R5; 5 mM)	gustducin activation ([1]; 1 mM)
C[C@@H]1C[C@@H]([C@H](O)CC2CC(=O)NC(=O)C2)C(=O)[C@@H](C)C1 [cycloheximide]	6.30	specifically responded	significantly reduced responses	~0.2	No increase in [Ca2+]i	robust Gα15 dependent responses	highly specific	did not trigger [Ca2+]i changes	> 70	adaptation	robust transient responses	< 1	robust receptor activation	4.83	exquisite cycloheximide-dependent coupling	activate gustducin	–	–
CC[N+](CC)(CC(=O)Nc1c(C)cccc1C)Cc1ccccc1 [denatonium]	–	–	–	–	–	–	–	–	–	–	–	–	–	–	–	–	not observed	not
